pIC50: −log10 of the molar value.
Legend:
[1] = biological target: T1, Steroid 17-alpha-hydroxylase/17,20 lyase (Homo sapiens, UniProt P05093); assay: Inhibition of CYP17 in human testicular microsomes using 17alpha-hydroxypregnenolone as substrate assessed as decrease in DHEA levels after 90 mins by ELISA; parameters: species or system Testis
T1 sequence (P05093 whole entry): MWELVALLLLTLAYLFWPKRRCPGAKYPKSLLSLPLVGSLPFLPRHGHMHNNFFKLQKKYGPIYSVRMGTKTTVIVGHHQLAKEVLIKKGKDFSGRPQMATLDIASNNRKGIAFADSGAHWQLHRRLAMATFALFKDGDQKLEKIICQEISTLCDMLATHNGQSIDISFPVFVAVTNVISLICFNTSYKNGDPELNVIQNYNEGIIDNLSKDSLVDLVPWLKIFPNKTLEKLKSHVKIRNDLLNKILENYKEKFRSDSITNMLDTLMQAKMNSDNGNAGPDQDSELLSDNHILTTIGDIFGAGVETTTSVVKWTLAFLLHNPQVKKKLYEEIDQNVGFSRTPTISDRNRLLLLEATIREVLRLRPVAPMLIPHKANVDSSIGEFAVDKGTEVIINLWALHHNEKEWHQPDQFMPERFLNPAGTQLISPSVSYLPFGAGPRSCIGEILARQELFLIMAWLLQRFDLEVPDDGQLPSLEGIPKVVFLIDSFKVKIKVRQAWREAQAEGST

[2] = biological target: T2, CYP21 (steroid 21-hydroxylase) (Homo sapiens, UniProt P08686); assay: Inhibition of human CYP21 transfected in HEK293 cells assessed as decrease in conversion of progesterone to 11-deoxycorticosterone preincubated for 5 hrs followed by progesterone addition measured after 20 hrs by ELISA; type: cell-based; parameters: concentration or dose not given beside the values; conditions: HEK293 cells transfected with human CYP21, probe progesterone
T2 sequence (P08686 whole entry): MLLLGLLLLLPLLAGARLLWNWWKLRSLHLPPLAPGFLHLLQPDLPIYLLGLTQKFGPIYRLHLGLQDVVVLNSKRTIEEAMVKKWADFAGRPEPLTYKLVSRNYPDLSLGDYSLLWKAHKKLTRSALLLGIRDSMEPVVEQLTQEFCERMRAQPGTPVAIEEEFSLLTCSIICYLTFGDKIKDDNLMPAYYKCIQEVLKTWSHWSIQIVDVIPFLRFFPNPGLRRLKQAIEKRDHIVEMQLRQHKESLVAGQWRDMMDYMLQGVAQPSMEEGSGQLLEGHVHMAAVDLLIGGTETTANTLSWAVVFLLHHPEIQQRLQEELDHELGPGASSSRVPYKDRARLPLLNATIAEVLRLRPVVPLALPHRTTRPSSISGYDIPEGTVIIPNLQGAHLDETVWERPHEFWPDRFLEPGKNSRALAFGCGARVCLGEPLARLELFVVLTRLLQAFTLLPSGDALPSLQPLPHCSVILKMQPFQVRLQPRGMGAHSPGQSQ

[3] = Half life in human liver microsomes at 1 uM by LC-MS/MS analysis
[4] = biological target: T1, Steroid 17-alpha-hydroxylase/17,20 lyase; assay: Inhibition of CYP17 in human testicular microsomes using 17alpha-hydroxypregnenolone as substrate assessed as decrease in DHEA levels at 1 nM after 90 mins by ELISA relative to control; parameters: species or system Testis
[5] = biological target: T1, Steroid 17-alpha-hydroxylase/17,20 lyase; assay: Inhibition of CYP17 in human H295R cells assessed as decrease in testosterone levels after 24 hrs by ELISA; type: cell-based
CYP11B = biological target: T3, CYP11B (Rattus norvegicus, UniProt P15393+P30099); assay: Inhibition of Sprague-Dawley rat adrenal mitochondrial CYP11B assessed as decrease in conversion of 11-deoxycortisol to cortisol at 100 nM incubated for 60 mins by ELISA relative to control; type: protein assay; conditions: adrenal mitochondria, probe 11-deoxycortisol
T3 sequence (P30099 whole entry): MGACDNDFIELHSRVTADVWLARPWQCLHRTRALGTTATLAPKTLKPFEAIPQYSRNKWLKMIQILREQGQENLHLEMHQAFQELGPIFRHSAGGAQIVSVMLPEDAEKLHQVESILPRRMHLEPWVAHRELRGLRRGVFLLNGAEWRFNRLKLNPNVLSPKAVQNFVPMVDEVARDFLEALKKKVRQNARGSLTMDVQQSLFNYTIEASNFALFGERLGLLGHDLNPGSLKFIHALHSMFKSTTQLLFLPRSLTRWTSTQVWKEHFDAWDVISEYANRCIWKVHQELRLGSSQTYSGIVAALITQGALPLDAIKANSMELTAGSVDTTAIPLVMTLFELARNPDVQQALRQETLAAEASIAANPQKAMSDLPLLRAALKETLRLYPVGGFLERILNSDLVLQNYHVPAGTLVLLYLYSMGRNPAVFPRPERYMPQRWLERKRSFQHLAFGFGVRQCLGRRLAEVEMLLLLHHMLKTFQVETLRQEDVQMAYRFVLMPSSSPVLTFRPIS
T3 sequence (P15393 whole entry): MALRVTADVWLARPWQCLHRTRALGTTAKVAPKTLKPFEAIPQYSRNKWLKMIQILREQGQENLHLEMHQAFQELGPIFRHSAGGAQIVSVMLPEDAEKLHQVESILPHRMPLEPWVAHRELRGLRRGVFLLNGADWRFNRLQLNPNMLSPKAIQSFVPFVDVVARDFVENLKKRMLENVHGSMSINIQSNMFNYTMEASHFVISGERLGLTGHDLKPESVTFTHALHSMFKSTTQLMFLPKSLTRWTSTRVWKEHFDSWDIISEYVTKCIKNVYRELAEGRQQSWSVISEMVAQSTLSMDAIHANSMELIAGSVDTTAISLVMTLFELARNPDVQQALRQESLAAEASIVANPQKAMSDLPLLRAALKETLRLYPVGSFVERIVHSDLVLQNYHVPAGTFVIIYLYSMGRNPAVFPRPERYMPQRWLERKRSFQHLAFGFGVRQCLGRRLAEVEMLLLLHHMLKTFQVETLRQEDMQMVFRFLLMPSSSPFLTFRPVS

[6] = biological target: T1, Steroid 17-alpha-hydroxylase/17,20 lyase; assay: Inhibition of CYP17 in human testicular microsomes using 17alpha-hydroxypregnenolone as substrate assessed as decrease in DHEA levels at 10 nM after 90 mins by ELISA relative to control; parameters: species or system Testis; conditions: 1.5 h

| inhibition at 1 h, 0.1 µM (CYP11B) | SMILES | pIC50 [1] | inhibition at 20 h [2] | half-life at 1 µM [3] | pIC50 [4] | pIC50 [5] | inhibition at 0.01 µM [6] |
| --- | --- | --- | --- | --- | --- | --- | --- |
|  | C[C@]12CC[C@H]3[C@@H](C=CC4=CC(=O)CC[C@@]43C)C1=CC=C2c1cccnc1 | ≥ 7.96 | ≥ 50% | 1 to 50 min | 7.00 to 8.00 |  |  |
|  | C[C@]12CCNC(=O)C=C1C1(CC1)C[C@@H]1[C@@H]2CC[C@]2(C)C(c3cccnc3)=CC[C@@H]12 | ≥ 7.96 | 10 to 50% | 1 to 50 min | ≥ 8.00 | ≥ 7.82 |  |
| ≥ 50% | CN1C(=O)C[C@@]2(C)C1=CC[C@@H]1[C@@H]2CC[C@]2(C)C(n3ccnc3)=CC[C@@H]12 |  | 10 to 50% |  |  |  |  |
| ≥ 50% | C[C@]12CC[C@H]3[C@@H](CC=C4C[C@H](NC(=O)C5CC5)CC[C@@]43C)C1=CC=C2n1ccnc1 |  | 10 to 50% |  |  |  |  |
|  | C[C@]12CC[C@H]3[C@@H](CCC4=CC(=O)NCC[C@@]43C)C1=CC=C2c1cncc(F)c1 |  | 10 to 50% | 1 to 50 min | < 7.00 | ≥ 7.82 |  |
| < 32% | CN1C(=O)CC[C@@]2(C)C1=CC[C@@H]1[C@@H]2CC[C@]2(C)C(n3cncc3C#N)=CC[C@@H]12 |  | < 10% |  |  |  |  |
|  | C[C@]12CCC(=O)C=C1C1(CC1)C[C@@H]1[C@@H]2CC[C@]2(C)C(c3cccnc3)=CC[C@@H]12 | ≥ 7.96 | ≥ 50% | 1 to 50 min | ≥ 8.00 | ≥ 7.82 |  |
| ≥ 50% | CCOc1cncc(C2=CC[C@H]3[C@@H]4CC=C5N(C)C(=O)C[C@]5(C)[C@H]4CC[C@]23C)c1 |  | 10 to 50% |  |  |  |  |
| ≥ 50% | CN1C(=O)CC[C@@]2(C)C1=CC[C@@H]1[C@@H]2CC[C@]2(C)C(c3cncc(F)c3)=CC[C@@H]12 |  | 10 to 50% |  |  |  |  |
|  | CC1C[C@H]2C3=CC=C(c4cncc(F)c4)[C@@]3(C)CC[C@@H]2[C@@]2(C)CCC(=O)C=C12 (some centres undefined) |  | 10 to 50% | 1 to 50 min | ≥ 8.00 | ≥ 7.82 |  |
|  | C[C@]12CCNC(=O)C=C1C1CC1[C@@H]1[C@@H]2CC[C@]2(C)C(c3cccnc3)=CC[C@@H]12 (some centres undefined) | ≥ 7.96 | ≥ 50% | 1 to 50 min | < 7.00 |  |  |
|  | C[C@]12CC[C@H]3[C@@H](CCC4=CC(=O)C=C[C@@]43C)C1=CC=C2c1cccnc1 | ≥ 7.96 | ≥ 50% | 1 to 50 min | 7.00 to 8.00 | ≥ 7.82 |  |
|  | C=C1C[C@@H]2[C@H](CC[C@]3(C)C(c4cccnc4)=CC[C@@H]23)[C@@]2(C)CCC(=O)C=C12 | ≥ 7.96 | ≥ 50% | 1 to 50 min | 7.00 to 8.00 | ≥ 7.82 |  |
|  | C[C@]12CC[C@H]3[C@@H](CCC4=CC(=O)CC[C@@]43C)C1=CC=C2c1cncc(F)c1 | ≥ 7.96 | ≥ 50% | 1 to 50 min | 7.00 to 8.00 | ≥ 7.82 |  |
|  | CC1C[C@H]2C3=CC=C(c4cccnc4)[C@@]3(C)CC[C@@H]2[C@@]2(C)C=CC(=O)C=C12 (some centres undefined) |  | ≥ 50% | 1 to 50 min | ≥ 8.00 |  | ≥ 80% |
|  | C[C@]12CC[C@H]3[C@@H](CCC4=CC(=O)CC[C@@]43C)C1=CC=C2c1cncnc1 | ≥ 7.96 | ≥ 50% | 1 to 50 min | 7.00 to 8.00 |  |  |
| < 32% | CC(=O)N[C@@H]1CC[C@@]2(C)C(=CC[C@H]3C4=CC=C(n5ccnc5)[C@@]4(C)CC[C@@H]32)C1 |  | 10 to 50% |  |  |  |  |
|  | CCC1C[C@H]2C3=CC=C(c4cccnc4)[C@@]3(C)CC[C@@H]2[C@@]2(C)CCC(=O)C=C12 (some centres undefined) | ≥ 7.96 | 10 to 50% | 1 to 50 min | 7.00 to 8.00 |  |  |
|  | CC1C[C@@H]2[C@H](CC[C@]3(C)C(c4cccnc4)=CC[C@@H]23)[C@@]2(C)CCC(=O)C=C12 (some centres undefined) | ≥ 7.96 | ≥ 50% | 1 to 50 min | 7.00 to 8.00 | ≥ 7.82 |  |
|  | CC1C[C@@H]2[C@H](CC[C@]3(C)C(c4cccnc4)=CC[C@@H]23)[C@@]2(C)C=CC(=O)C=C12 (some centres undefined) |  | ≥ 50% | 1 to 50 min | ≥ 8.00 | ≥ 7.82 |  |
|  | C=C1C[C@@H]2[C@H](CC[C@]3(C)C(c4cncc(F)c4)=CC[C@@H]23)[C@@]2(C)C=CC(=O)C=C12 | ≥ 7.96 |  | 1 to 50 min | < 7.00 | ≥ 7.82 |  |
| ≥ 50% | C[C@]12CCCN(S(C)(=O)=O)CC1CC[C@@H]1[C@@H]2CC[C@]2(C)C(n3ccnc3)=CC[C@@H]12 (some centres undefined) |  |  |  |  |  |  |
|  | C[C@]12C=CC(=O)C=C1C1(CC1)C[C@@H]1[C@@H]2CC[C@]2(C)C(c3cccnc3)=CC[C@@H]12 | ≥ 7.96 | 10 to 50% | 1 to 50 min | ≥ 8.00 | ≥ 7.82 |  |
| ≥ 50% | CC(=O)N1CCC[C@@]2(C)[C@@H](CC[C@@H]3[C@@H]2CC[C@]2(C)C(n4ccnc4)=CC[C@@H]32)C1 |  | 10 to 50% |  |  |  |  |
|  | CC1C[C@@H]2[C@H](CC[C@]3(C)C(c4cncc(F)c4)=CC[C@@H]23)[C@@]2(C)CCC(=O)C=C12 (some centres undefined) | ≥ 7.96 | ≥ 50% |  | < 7.00 | ≥ 7.82 |  |
|  | CC1C[C@H]2C3=CC=C(c4cccnc4)[C@@]3(C)CC[C@@H]2[C@@]2(C)CCC(=O)C=C12 (some centres undefined) | ≥ 7.96 | ≥ 50% | 1 to 50 min | ≥ 8.00 |  |  |
| < 32% | Cc1cncc(C2=CC[C@H]3[C@@H]4CC=C5N(C)C(=O)C[C@]5(C)[C@H]4CC[C@]23C)c1 |  | 10 to 50% |  |  |  |  |
|  | CC1C[C@@H]2[C@H](CC[C@]3(C)C(c4cccnc4)CC[C@@H]23)[C@@]2(C)C=CC(=O)C=C12 (some centres undefined) | ≥ 6.95 |  | 1 to 50 min | ≥ 8.00 |  |  |
|  | C=C1CC2[C@H](CC[C@]3(C)C(c4cccnc4)=CC[C@@H]23)C2(C)C=CC(=O)C=C12 (single isomer, unassigned) | ≥ 7.96 | ≥ 50% | 1 to 50 min | ≥ 8.00 | ≥ 7.82 |  |

— ChEMBL document CHEMBL3882724 (2013)
